Laboratory results reported in PubChem BioAssay (NCI).
Several values for one entry are separate records, joined by “and”; a condition that tells them apart may be missing. Equal values may be shown once.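 Test compounds were applied to cells in 96-well plates for 48 hours at 5 doses. Abbreviation: GI50, concentration required for 50% inhibition of growth. Definition used: TGI = concentration required for complete inhibition of growth.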

Assays:
Assay in all cases: NCI-60 cell line screen, 48 h
CCRF-CEM leukemia = tested on: CCRF-CEM leukemia
COLO 205 colon = tested on: COLO 205 colon
HCT-116 colon = tested on: HCT-116 colon
HL-60(TB) leukemia = tested on: HL-60(TB) leukemia
KM12 colon = tested on: KM12 colon
NCI-H522 lung = tested on: NCI-H522 lung
SK-MEL-5 melanoma = tested on: SK-MEL-5 melanoma
SNB-75 CNS = tested on: SNB-75 CNS
SNB-19 CNS = tested on: SNB-19 CNS
MDA-MB-435 = tested on: MDA-MB-435

CC1(C)OC2CC3COC(=O)C3CC2O1 (stereo unspecified)
TGI (CCRF-CEM leukemia): > 100 µM
TGI (COLO 205 colon): > 100 µM
TGI (HCT-116 colon): > 100 µM
TGI (HL-60(TB) leukemia): > 100 µM
TGI (KM12 colon): > 100 µM
TGI (NCI-H522 lung): > 100 µM
TGI (SK-MEL-5 melanoma): > 100 µM
TGI (SNB-75 CNS): > 100 µM

C#CCN(N=O)C(=O)NCCCCC(NC(=O)OCc1ccccc1)C(=O)OCc1ccccc1 (stereo unspecified)
TGI (CCRF-CEM leukemia): 45.1 µM
TGI (HCT-116 colon): > 100 µM
TGI (HL-60(TB) leukemia): > 100 µM
TGI (KM12 colon): > 100 µM
TGI (NCI-H522 lung): 30 µM
TGI (SK-MEL-5 melanoma): > 100 µM
TGI (SNB-19 CNS): > 100 µM
TGI (SNB-75 CNS): > 100 µM

O=C(Nc1cc(Cl)ccc1Cl)c1cc2cccc(Br)c2oc1=O
TGI (CCRF-CEM leukemia): > 100 µM
TGI (COLO 205 colon): > 100 µM
TGI (HCT-116 colon): > 100 µM
TGI (HL-60(TB) leukemia): > 100 µM
TGI (KM12 colon): > 100 µM
TGI (NCI-H522 lung): > 100 µM
TGI (SK-MEL-5 melanoma): > 100 µM
TGI (SNB-19 CNS): > 100 µM
TGI (SNB-75 CNS): > 100 µM

Cc1cc(Br)cc(C)c1NC(=O)C(=O)C(C(=O)c1ccncc1)C1OC(=O)c2ccccc21 (stereo unspecified)
TGI (CCRF-CEM leukemia): > 100 µM
TGI (COLO 205 colon): > 100 µM
TGI (HCT-116 colon): > 100 µM
TGI (HL-60(TB) leukemia): > 100 µM
TGI (KM12 colon): > 100 µM
TGI (NCI-H522 lung): > 100 µM
TGI (SNB-19 CNS): > 100 µM

NC(=O)COc1c(Br)cc(Br)cc1Br
TGI (CCRF-CEM leukemia): > 100 µM
TGI (COLO 205 colon): > 100 µM
TGI (HCT-116 colon): > 100 µM
TGI (KM12 colon): > 100 µM
TGI (NCI-H522 lung): > 100 µM
TGI (SK-MEL-5 melanoma): > 100 µM
TGI (SNB-19 CNS): > 100 µM
TGI (SNB-75 CNS): > 100 µM

CCOP(=O)(OCC)/C(C#N)=C\c1ccsc1
TGI (COLO 205 colon): > 100 µM
TGI (HCT-116 colon): > 100 µM
TGI (KM12 colon): > 100 µM
TGI (NCI-H522 lung): > 100 µM
TGI (SK-MEL-5 melanoma): > 100 µM
TGI (SNB-19 CNS): > 100 µM
TGI (SNB-75 CNS): > 100 µM

O=C1NC(=O)C(=Cc2c3ccccc3cc3ccccc23)C(=O)N1
TGI (CCRF-CEM leukemia): > 100 µM
TGI (COLO 205 colon): > 100 µM
TGI (HCT-116 colon): > 100 µM
TGI (HL-60(TB) leukemia): > 100 µM
TGI (NCI-H522 lung): > 100 µM
TGI (SK-MEL-5 melanoma): > 100 µM
TGI (SNB-19 CNS): > 100 µM

COc1cc2c(c(O)c1C)C(=O)CC(c1ccccc1)O2 (stereo unspecified)
TGI (CCRF-CEM leukemia): > 10 µM
TGI (HCT-116 colon): > 100 µM
TGI (KM12 colon): > 100 µM
TGI (NCI-H522 lung): > 100 µM
TGI (SK-MEL-5 melanoma): 37.2 µM
TGI (SNB-75 CNS): > 100 µM

COC1=CC(=O)C(Br)=CC1=O
TGI (CCRF-CEM leukemia): 8.84 µM
TGI (COLO 205 colon): 31 µM
TGI (HL-60(TB) leukemia): 23.6 µM
TGI (NCI-H522 lung): 23.9 µM
TGI (SK-MEL-5 melanoma): 34.5 µM
TGI (SNB-19 CNS): 32.9 µM
TGI (SNB-75 CNS): 29.1 µM

COc1cc2c3c(n(CCCCNC(=O)OC(C)(C)C)c(=O)c2cc1OC)-c1cc2c(cc1C3=O)OCO2
GI50 (COLO 205 colon): > 100 µM
TGI (COLO 205 colon): > 100 µM
GI50 (HCT-116 colon): > 100 µM
TGI (HCT-116 colon): > 100 µM
GI50 (KM12 colon): > 100 µM
TGI (KM12 colon): > 100 µM
GI50 (MDA-MB-435): > 100 µM
TGI (MDA-MB-435): > 100 µM
GI50 (NCI-H522 lung): > 100 µM
TGI (NCI-H522 lung): > 100 µM
GI50 (SK-MEL-5 melanoma): > 100 µM
TGI (SK-MEL-5 melanoma): > 100 µM
GI50 (SNB-19 CNS): > 100 µM
TGI (SNB-19 CNS): > 100 µM
GI50 (SNB-75 CNS): 33.2 µM
TGI (SNB-75 CNS): > 100 µM

Cc1cc2c(c3nocc13)C(=O)c1ccccc1C2=O
TGI (CCRF-CEM leukemia): > 100 µM
TGI (COLO 205 colon): > 100 µM
TGI (HL-60(TB) leukemia): > 100 µM
TGI (KM12 colon): > 100 µM
TGI (NCI-H522 lung): > 100 µM
TGI (SK-MEL-5 melanoma): > 100 µM
TGI (SNB-19 CNS): > 100 µM
TGI (SNB-75 CNS): > 100 µM

CN(C)CCNC(=O)c1cccc2nc3ccc4cccnc4c3nc12
TGI (CCRF-CEM leukemia): 13.1 µM
TGI (COLO 205 colon): 1.55 µM
TGI (HCT-116 colon): 2.43 µM
TGI (HL-60(TB) leukemia): 2.91 µM
TGI (KM12 colon): 3.54 µM
TGI (SK-MEL-5 melanoma): 1.33 µM
TGI (SNB-19 CNS): 6.75 µM
TGI (SNB-75 CNS): 1.84 µM

Cc1c(NC(=O)CCl)c(=O)oc2c(C)c3occc(=O)c3cc12
TGI (CCRF-CEM leukemia): 41.8 µM
TGI (COLO 205 colon): 40 µM
TGI (HCT-116 colon): 25.9 µM
TGI (HL-60(TB) leukemia): 21.9 µM
TGI (KM12 colon): 23.9 µM
TGI (SK-MEL-5 melanoma): 23.6 µM
TGI (SNB-19 CNS): 33.6 µM
TGI (SNB-75 CNS): 8.47 µM

CCN(CC)CCCOc1ccc2ncnc(Nc3ccc(Oc4cccc(C(F)(F)F)c4)c(Cl)c3)c2c1
GI50 (CCRF-CEM leukemia): 2.26 µM
TGI (CCRF-CEM leukemia): 14.2 µM
GI50 (KM12 colon): 1.77 µM
TGI (KM12 colon): 3.24 µM
GI50 (MDA-MB-435): 1.65 µM
TGI (MDA-MB-435): 3.22 µM
GI50 (SNB-75 CNS): 1.49 µM
TGI (SNB-75 CNS): 2.86 µM

CCN(CCCl)CCCCCNc1c2ccccc2nc2ccc(OC)cc12
TGI (CCRF-CEM leukemia): 2.78 µM
TGI (COLO 205 colon): 3.03 µM
TGI (HCT-116 colon): 1.43 µM
TGI (HL-60(TB) leukemia): 0.266 µM
TGI (KM12 colon): 1.81 µM
TGI (NCI-H522 lung): 2.03 µM
TGI (SK-MEL-5 melanoma): 2.69 µM
TGI (SNB-19 CNS): 3.78 µM
TGI (SNB-75 CNS): 3.02 µM

CCNc1cc2oc(=O)cc(C(F)(F)F)c2cc1C
TGI (COLO 205 colon): > 100 µM
TGI (HCT-116 colon): > 100 µM
TGI (KM12 colon): > 100 µM
TGI (MDA-MB-435): > 100 µM
TGI (NCI-H522 lung): > 100 µM
TGI (SK-MEL-5 melanoma): > 100 µM
TGI (SNB-19 CNS): > 100 µM
TGI (SNB-75 CNS): > 100 µM

CC(=O)O[C@@]12CO[C@@H]1C[C@H](O)[C@@]1(C)C(=O)[C@H](O)C3=C(C)[C@@H](OC(=O)[C@H](O)[C@@H](NC(=O)OC(C)(C)C)c4ccccc4)C[C@@](O)([C@@H](OC(=O)c4ccccc4)C12)C3(C)C (stereo partly specified)
GI50 (CCRF-CEM leukemia): < 0.005 µM
TGI (CCRF-CEM leukemia): 29.3 µM and 60.8 µM
TGI (COLO 205 colon): 0.0251 µM
GI50 (HCT-116 colon): < 0.005 µM
TGI (HCT-116 colon): 50 µM and > 100 µM
GI50 (HL-60(TB) leukemia): < 0.005 µM
TGI (HL-60(TB) leukemia): 0.0241 µM and 0.0348 µM
GI50 (KM12 colon): < 0.005 µM
TGI (KM12 colon): 50 µM and 27.7 µM
TGI (NCI-H522 lung): 52.3 µM
GI50 (SK-MEL-5 melanoma): < 0.005 µM
TGI (SK-MEL-5 melanoma): 9.05 µM and 14.6 µM
GI50 (SNB-19 CNS): 0.031 µM
TGI (SNB-19 CNS): > 100 µM
